Experimental data taken from BindingDB's records for doi:10.1021/ml300330m (Glaxosmithkline, 2013).

Assay: Inhibition of PI3Kbeta human in PTEN wild type HCC1954 cells assessed as cell growth inhibition

| EC50 | SMILES |
| --- | --- |
| 12.6 µM | Cc1nn2c(NC(N)=O)cc(N3CCOCC3)nc2c1Cc1cccc(C(F)(F)F)c1C |
| 12.6 µM | Cc1nn2c(N)cc(N3CCOCC3)nc2c1Cc1cccc(C(F)(F)F)c1C |
| 15.8 µM | Cc1c(Cc2cnn3c(O)cc(N4CCOCC4)nc23)cccc1C(F)(F)F |
| 15.8 µM | Cc1nn2c(O)cc(N3CCOCC3)nc2c1Cc1cccc(C(F)(F)F)c1C |
| 31.6 µM | Cc1nn2c(O)cc(N3CCOCC3)nc2c1Cc1cccc2ccccc12 |
| 25.1 µM | Cc1nn2c(O)cc(C3CCOCC3)nc2c1Cc1cccc(C(F)(F)F)c1C |
